Experimental data: EP0103381B1, “Substituted anthra(1,9-cd)pyrazol-6(2H)-ones” (WARNER-LAMBERT COMPANY, priority 1982, dated 1984)
Counter-ions that a name gives are not always drawn.

Key:
[1] = tested on: HCT-8 (human colon adenocarcinoma) cells; assay: in vitro activity against human colon adenocarcinoma (HCT-8), cell count; format: cell-based; conditions: HCT-8 human colon adenocarcinoma cells, 60-65 hrs incubation with compound, Coulter counter cell count as percentage of controls; read-out: ID50 (the source's name)
Description: HCT-8 (human colon adenocarcinoma) cells are trypsinized using Trypsin-EDTA. A single cell suspension is achieved by passing the cells through a 26 gauge needle with a 20 cc syringe. A cell suspension is prepared using RPMI 1640 growth medium (available from Gibco Laboratories) +10% fetal calf serum +50 µg/ml garamycin with a cell concentration of approximately 30,000 cells/ml. The cell suspension is dispensed in Linbro 24-well plates; 1 ml/well. The plates are incubated for approximately 48 hrs at 37°C in a 5% C02 atmosphere. At this time test compounds are added in the appropriate concentration. Five µl of the 200 µg/ml stock solution is added to each well in a primary test. Ten pl of the appropriate dilution is added to each well for a titration test. The plates are reincubated an additional 60-65 hrs at 37°C in a 5% C02 atmosphere. The test is read by lysing the cells using a mix of cationic surfactant, glacial acetic acid and sodium chloride. […] of the lysed cell suspension from each well is added to 8 ml of diluent. Each sample is read with a Coulter counter (ZBI model). The activity of each sample is measured as a percentage of the controls and the data is reported as ID50, that is the molar quantity of drug required to kill 50% of the tumor cells.

Aerobacter aerogenes = assay: agar plate paper-disc inhibition zone screening; format: cell-based; conditions: Klebsiella aerogenes, read-out: Inhibition Zone Diameter mm (Dose mg/ml) A. Aerogenes; for zone of inhibition at 500 µg/mL: Dose 0.5 mg/ml
How it was run: (§1)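 Inoculum: saline suspension, 20-35% transmittancy, in molten agar. Discs 12.7 mm, compound 3,000/1,000/500/100/10 mcg/ml, solvent <10%. 37°C, 18-20 h; zone diameter in mm.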

Bacillus subtilis = assay: agar plate paper-disc inhibition zone screening; format: cell-based; conditions: read-out: Inhibition Zone Diameter mm (Dose mg/ml) B. Subtilis; for zone of inhibition at 3000 µg/mL: Dose 3.0 mg/ml
How it was run: as §1

Escherichia coli = assay: agar plate paper-disc inhibition zone screening; format: cell-based; conditions: read-out: Inhibition Zone Diameter mm (Dose mg/ml) E. Coli; for zone of inhibition at 500 µg/mL: Dose 0.5 mg/ml
How it was run: as §1

Streptococcus faecalis = assay: agar plate paper-disc inhibition zone screening; format: cell-based; conditions: Enterococcus faecalis, read-out: Inhibition Zone Diameter mm (Dose mg/ml) S. Faecalis; for zone of inhibition at 3000 µg/mL: Dose 3.0 mg/ml
How it was run: as §1

Penicillium avellaneum = assay: agar plate paper-disc inhibition zone screening; format: cell-based; conditions: Hamigera avellanea; Dose 3.0 mg/ml; read-out: Inhibition Zone Diameter mm (Dose mg/ml) P. Avellaneum
How it was run: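 Mycelia and spores from a six-day 28°C agar culture, suspended in saline with 0.05% Tween 80 at 20% transmittancy, were seeded into molten agar trays. Compounds at 3,000, 1,000, 500, 100 and 10 mcg/ml (solvent <10%) were applied on 12.7 mm paper discs. After at least 20-24 h incubation, inhibition zone diameter was measured in mm.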

[2] = tested on: lymphocytic leukemia P388; assay: in vivo lymphocytic leukemia P388 test; parameters: species or system mice; conditions: Mus musculus, P388, ip, 720 h, two single doses four days apart, read-out: T/C × 100 (Percent); for response vs control in vivo at 25 mg/kg: P388, Dose 25 mg/kg intraperitoneally; for response vs control in vivo at 1.56 mg/kg: P388, Dose 1.56 mg/kg intraperitoneally
How it was run: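 Efficacy was judged from the treated/control survival-time ratio over 30 days (T/C×100 >125% as criterion). Mice (CD2F, 6–7/group) received i.p. P388 ascites cells, then compound i.p. at varied doses twice, four days apart.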

## CN(CCO)CCn1nc2c3c(c(NCCNCCO)ccc31)C(=O)c1c(O)ccc(O)c1-2
[1]
  IC50: 0.45 µM

## CN(C)CCn1nc2c3c(c(NCCNCCO)ccc31)C(=O)c1c(O)ccc(O)c1-2
[1]
  IC50: 0.18 µM

## CCN(CC)CC(O)Cn1nc2c3c(c(NCCNCCO)ccc31)C(=O)c1c(O)ccc(O)c1-2 (stereo not shown)
[1]
  IC50: 0.69 µM

## NCCn1nc2c3c(c(NCCCNCCO)ccc31)C(=O)c1c(O)ccc(O)c1-2
[1]
  IC50: 0.28 µM

## NCCCNc1ccc2c3c(nn2CCN)-c2c(O)ccc(O)c2C(=O)c13
[1]
  IC50: 0.85 µM

## CN(C)CCNc1ccc2c3c(nn2CCO)-c2c(O)ccc(O)c2C(=O)c13 [7,10-(OH)2; (CH2)2OH·HCl; NH(CH2)2NMe2]
[1]
  IC50: 0.17 µM

## CNCCNc1ccc2c3c(nn2CCNCCO)-c2c(O)ccc(O)c2C(=O)c13
[1]
  IC50: 0.4 µM

## CCN(CC)CC(O)Cn1nc2c3c(c(NCCN)ccc31)C(=O)c1c(O)ccc(O)c1-2 (stereo not shown)
[1]
  IC50: 0.46 µM

## CNCCNc1ccc2c3c(nn2CCNCCO)-c2cccc(O)c2C(=O)c13
[1]
  IC50: 0.027 µM

## CCN(CC)CCn1nc2c3c(c(NCCNC)ccc31)C(=O)c1c(O)ccc(O)c1-2
[1]
  IC50: 0.12 µM

## NCCNc1ccc2c3c(nn2CCN)-c2c(O)ccc(O)c2C(=O)c13 [7,10-(OH)2; (CH2)2NH2·2HCl; NH(CH2)2NH2]
[1]
  IC50: 0.91 µM

## CN(C)CCn1nc2c3c(c(NCCN)ccc31)C(=O)c1c(O)ccc(O)c1-2 [7,10-(OH)2; (CH2)2NMe2·2HCl; NH(CH2)2NH2]
[1]
  IC50: 0.14 µM

## CN(C)CCn1nc2c3c(c(NCCCN)ccc31)C(=O)c1c(O)ccc(O)c1-2 [7,10-(OH)2; (CH2)2NMe2·2HCl; NH(CH2)3NH2]
[1]
  IC50: 1.1 µM

## CN1CCN(c2ccc3c4c(nn3CCNCCO)-c3c(O)ccc(O)c3C(=O)c24)CC1
[1]
  IC50: 0.54 µM

## O=C1c2cccc(O)c2-c2nn(CCNCCO)c3ccc(NCCNCCO)c1c23
[1]
  IC50: 1.1 µM

## O=C1c2c(O)cccc2-c2nn(CCNCCO)c3ccc(NCCNCCO)c1c23
[1]
  IC50: 0.061 µM

## CN(C)CCCn1nc2c3c(c(NCCCN)ccc31)C(=O)c1c(O)ccc(O)c1-2 [7,10-(OH)2; (CH2)3NMe2·2HCl; NH(CH2)3NH2]
[1]
  IC50: 0.35 µM

## NCCCCCNc1ccc2c3c(nn2CCNCCO)-c2c(O)ccc(O)c2C(=O)c13 [Example 60, 5-[(5-Aminopentyl)amino]-7,10-dihydroxy-2-[2-[(2-hydroxyethyl)amino]ethyl]anthra[1,9-cd]pyrazol-6(2H)-one]
Aerobacter aerogenes; Dose 3.0 mg/ml
  zone of inhibition at 3000 µg/mL: 0 mm
Bacillus subtilis
  zone of inhibition at 3000 µg/mL: 0 mm
Escherichia coli; Dose 3.0 mg/ml
  zone of inhibition at 3000 µg/mL: 14 mm
Streptococcus faecalis
  zone of inhibition at 3000 µg/mL: 0 mm
Penicillium avellaneum
  zone of inhibition at 3000 µg/mL: 0 mm
[2]; P388, Dose 12.5 mg/kg intraperitoneally
  response vs control in vivo at 12.5 mg/kg: 127%
[2]
  response vs control in vivo at 25 mg/kg: 127%
[2]; P388, Dose 50 mg/kg intraperitoneally
  response vs control in vivo at 50 mg/kg: 127%
[2]; P388, Dose 100 mg/kg intraperitoneally
  response vs control in vivo at 100 mg/kg: 150%

## CN(C)CCNc1ccc2c3c(nn2CCNCCO)-c2c(O)ccc(O)c2C(=O)c13 [Example 56, 5-[[2-(Dimethylamino)ethyl]amino]-7,10-dihydroxy-2-[2-[(2-hydroxyethyl)amino]ethyl]anthra[1,9-cd]pyrazol-6(2H)-one]
Aerobacter aerogenes
  zone of inhibition at 500 µg/mL: 14 mm
Bacillus subtilis; Dose 1.0 mg/ml
  zone of inhibition at 1000 µg/mL: 14 mm
Escherichia coli
  zone of inhibition at 500 µg/mL: 14 mm
Streptococcus faecalis; Dose 1.0 mg/ml
  zone of inhibition at 1000 µg/mL: 14 mm
Penicillium avellaneum
  zone of inhibition at 3000 µg/mL: 0 mm
[2]; P388, Dose 0.78 mg/kg intraperitoneally
  response vs control in vivo at 0.78 mg/kg: 152%
[2]
  response vs control in vivo at 1.56 mg/kg: 161%
  response vs control in vivo at 25 mg/kg: 88%
[2]; P388, Dose 3.12 mg/kg intraperitoneally
  response vs control in vivo at 3.12 mg/kg: 165%
[2]; P388, Dose 6.25 mg/kg intraperitoneally
  response vs control in vivo at 6.25 mg/kg: 165%

## CCN(CC)CC(O)Cn1nc2c3c(c(NCCN)ccc31)C(=O)c1c(O)ccc(O)c1-2 (stereo not shown) [Example 45, 5-[(2-Aminoethyl)amino]-2-[3-(diethylamino)-2-hydroxypropyl]-7,10-dihydroxyanthra[1,9-cd]pyrazol-6(2H)-one]
Aerobacter aerogenes
  zone of inhibition at 500 µg/mL: 15 mm
Bacillus subtilis
  zone of inhibition at 3000 µg/mL: 14 mm
Escherichia coli
  zone of inhibition at 500 µg/mL: 15 mm
Streptococcus faecalis
  zone of inhibition at 3000 µg/mL: 0 mm
Penicillium avellaneum
  zone of inhibition at 3000 µg/mL: 0 mm
[2]; P388, Dose 0.39 mg/kg intraperitoneally
  response vs control in vivo at 0.39 mg/kg: 135%
[2]
  response vs control in vivo at 1.56 mg/kg: 157%
